From patent publication US9388147B2 (Receptos, Inc., priority 2009, dated 2016) come the findings set out here.

T1 sequence (O95136 whole entry, species assumed): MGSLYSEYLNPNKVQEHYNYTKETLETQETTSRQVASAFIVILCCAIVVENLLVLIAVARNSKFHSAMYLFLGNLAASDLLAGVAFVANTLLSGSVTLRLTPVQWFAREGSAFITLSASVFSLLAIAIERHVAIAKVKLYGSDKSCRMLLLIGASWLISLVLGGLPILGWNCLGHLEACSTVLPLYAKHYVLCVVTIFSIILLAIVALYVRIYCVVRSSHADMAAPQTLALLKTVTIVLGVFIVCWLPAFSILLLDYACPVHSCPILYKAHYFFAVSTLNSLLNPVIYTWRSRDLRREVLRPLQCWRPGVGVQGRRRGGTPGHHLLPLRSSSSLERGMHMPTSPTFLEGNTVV
T2 sequence (Q99500 whole entry): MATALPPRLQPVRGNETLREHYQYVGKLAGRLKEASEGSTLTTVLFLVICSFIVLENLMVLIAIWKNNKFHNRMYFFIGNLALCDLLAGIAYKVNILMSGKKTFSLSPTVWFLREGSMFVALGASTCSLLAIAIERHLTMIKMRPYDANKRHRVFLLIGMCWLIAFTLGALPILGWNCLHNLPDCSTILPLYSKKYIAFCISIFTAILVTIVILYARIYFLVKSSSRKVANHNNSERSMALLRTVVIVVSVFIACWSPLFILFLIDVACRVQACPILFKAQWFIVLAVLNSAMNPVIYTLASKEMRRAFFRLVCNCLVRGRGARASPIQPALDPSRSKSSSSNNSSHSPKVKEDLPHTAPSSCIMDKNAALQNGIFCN

For the first assay, the target named is S1P1/EDG1 (Homo sapiens, UniProt P21453). Description: S1P1 CRE-bla CHOK1 reporter assay, inhibition of Forskolin induced cAMP. It is filed as cell-based. The settings on record: S1P1 CRE-bla CHOK1, with Forskolin; read-out: S1P1 agonist value (EC50). An outline of the steps: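 Read-out is a FRET β-lactamase substrate (2 h, room temperature) after 4 h, 37 °C compound treatment under 2 μM Forskolin in stable S1P1-transfected CRE-bla CHO-K1 cells. Ten-point curves; non-linear regression gives EC50 for inhibition of Forskolin-stimulated cAMP.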
S1P1/EDG1, sequence (P21453 whole entry): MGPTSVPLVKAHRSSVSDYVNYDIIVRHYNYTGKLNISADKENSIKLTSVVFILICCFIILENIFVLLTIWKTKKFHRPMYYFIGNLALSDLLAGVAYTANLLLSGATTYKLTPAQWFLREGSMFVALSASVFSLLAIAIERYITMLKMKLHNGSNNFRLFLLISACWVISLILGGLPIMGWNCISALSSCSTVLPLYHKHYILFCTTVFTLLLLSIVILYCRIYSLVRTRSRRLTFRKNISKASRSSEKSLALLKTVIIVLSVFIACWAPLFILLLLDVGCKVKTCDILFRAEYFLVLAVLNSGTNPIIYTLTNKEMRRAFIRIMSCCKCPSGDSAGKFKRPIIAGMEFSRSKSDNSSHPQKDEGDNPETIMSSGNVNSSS
On to `CCOc1ccc(-c2nc(-c3cccc4c3CCC4NCCO)no2)cc1OCC` (racemic) [Compound 253, (+/−)-2-((4-(5-(3,4,diethoxyphenyl)-1,2,4-oxadiazol-3-yl)-2,3-dihydro-1H-inden-1-yl)amino)ethanol, reference compound], for which the EC50 amounted to 2.88 nM.

The assay is the same for the next values; noted with them: agonist activity range, S1P1 CRE-bla CHOK1, 2 μM Forskolin; read-out: S1P1 ACTIVITY
With `CCOc1ccc(-c2nc(-c3cccc4c3CCC4NCCO)no2)cc1OCC` (racemic) [Compound 253, (+/−)-2-((4-(5-(3,4,diethoxyphenyl)-1,2,4-oxadiazol-3-yl)-2,3-dihydro-1H-inden-1-yl)amino)ethanol, reference compound], the EC50 fell in the range of 0.5 to 5 nM.

As to `COC(=O)CC1CCN(C(=O)N[C@@H]2CCc3c(-c4noc(-c5ccc(OC(C)C)c(C#N)c5)n4)cccc32)CC1` [Compound 225], the EC50 is 0.5 to 5 nM.

Regarding `COC(=O)CC1CCN(C(=O)N[C@H]2CCc3c(-c4noc(-c5ccc(OC(C)C)c(C#N)c5)n4)cccc32)CC1` [Compound 226], the EC50 is 0.05 to 0.5 nM.

Take `CC(C)Oc1ccc(-c2nc(-c3cccc4c3CC[C@H]4NC(=O)OCCO)no2)cc1C#N` [Compound 227]: the EC50 lay within 0.05 to 0.5 nM.

Consider `CC(C)Oc1ccc(-c2nc(-c3cccc4c3CC[C@H]4NC(=O)N3CCC(CC(=O)O)CC3)no2)cc1C#N` [Compound 228], for which the EC50 lay within 0.5 to 5 nM.

As for `CC(C)Oc1ccc(-c2nc(-c3cccc4c3CC[C@@H]4NC(=O)N3CCC(CC(=O)O)CC3)no2)cc1C#N` [Compound 229], the EC50 fell in the range of 0.05 to 0.5 nM.

As to `CC(C)Oc1ccc(-c2nc(-c3cccc4c3CC[C@H]4NC(=O)N3CC[C@@H](O)C3)no2)cc1C#N` [Compound 230], the EC50 was in the range of 0.05 to 0.5 nM.

For `CC(C)Oc1ccc(-c2nc(-c3cccc4c3CC[C@H]4NC(=O)N3CC[C@H](O)C3)no2)cc1C#N` [Compound 231], the EC50 lay in the range of 0.05 to 0.5 nM.

On to `CC(C)Oc1ccc(-c2nc(-c3cccc4c3CC[C@@H]4NC(=O)N3CC[C@@H](O)C3)no2)cc1C#N` [Compound 232], for which the EC50 lay within 0.05 to 0.5 nM.

On to `CC(C)Oc1ccc(-c2nc(-c3cccc4c3CC[C@@H]4NC(=O)N3CC[C@H](O)C3)no2)cc1C#N` [Compound 233], for which the EC50 fell in the range of 0.05 to 0.5 nM.

Take `COC(=O)C1CCN(C(=O)N[C@@H]2CCc3c(-c4noc(-c5ccc(OC(C)C)c(C#N)c5)n4)cccc32)CC1` [Compound 236]: the EC50 lay within 0.05 to 0.5 nM.

Regarding `COC(=O)C1CCN(C(=O)N[C@H]2CCc3c(-c4noc(-c5ccc(OC(C)C)c(C#N)c5)n4)cccc32)CC1` [Compound 237], the EC50 lay in the range of 0.05 to 0.5 nM.

`CC(C)Oc1ccc(-c2nc(-c3cccc4c3CC[C@H]4NC(=O)N3CCC(C(=O)O)CC3)no2)cc1C#N` [Compound 238]: the EC50 is 0.05 to 0.5 nM.

On to `CC(C)Oc1ccc(-c2nc(-c3cccc4c3CC[C@@H]4NC(=O)N3CCC(C(=O)O)CC3)no2)cc1C#N` [Compound 239], for which the EC50 was 0.05 to 0.5 nM.

For `CC(C)Oc1ccc(-c2nc(-c3cccc4c3CC[C@H]4NC(=O)N3CCC(O)CC3)no2)cc1C#N` [Compound 240], the EC50 is 0.5 to 5 nM.

As to `CC(C)Oc1ccc(-c2nc(-c3cccc4c3CC[C@@H]4NC(=O)N3CCC(O)CC3)no2)cc1C#N` [Compound 241], the EC50 was in the range of 0.05 to 0.5 nM.

`CC(C)Oc1ccc(-c2nc(-c3cccc4c3CC[C@H]4NC(=O)N3CC[C@@H](N(C)C)C3)no2)cc1C#N` [Compound 242]: the EC50 fell in the range of 0.5 to 5 nM.

Regarding `CC(C)Oc1ccc(-c2nc(-c3cccc4c3CC[C@H]4NC(=O)N3CC[C@H](N(C)C)C3)no2)cc1C#N` [Compound 243], the EC50 is 0.5 to 5 nM.

As to `CC(C)Oc1ccc(-c2nc(-c3cccc4c3CC[C@@H]4NC(=O)N3CC[C@@H](N(C)C)C3)no2)cc1C#N` [Compound 244], the EC50 was in the range of 0.5 to 5 nM.

Regarding `CC(C)Oc1ccc(-c2nc(-c3cccc4c3CC[C@@H]4NC(=O)N3CC[C@H](N(C)C)C3)no2)cc1C#N` [Compound 245], the EC50 was in the range of 0.5 to 5 nM.

As to `CC(C)Oc1ccc(-c2nc(-c3cccc4c3CC[C@H]4NC(=O)N3CCC(N(C)C)CC3)no2)cc1C#N` [Compound 246], the EC50 is more than 5 nM.

Turning to `CC(C)Oc1ccc(-c2nc(-c3cccc4c3CC[C@@H]4NC(=O)N3CCC(N(C)C)CC3)no2)cc1C#N` [Compound 247], the EC50 fell in the range of 0.5 to 5 nM.

Regarding `CC(C)Oc1ccc(-c2nc(-c3cccc4c3CC[C@H]4NS(N)(=O)=O)no2)cc1C#N` [Compound 248, (R)-N-(4-(5-(3 cyano-4-isopropoxyphenyl)-1,2,4-oxadiazol-3-yl)-2,3-dihydro-1H-inden-1-yl)sulfamide], the EC50 is less than 0.05 nM.

For the compound `CC(C)Oc1ccc(-c2nc(-c3cccc4c3CC[C@@H]4NS(N)(=O)=O)no2)cc1C#N` [Compound 249], the EC50 is less than 0.05 nM.

For `CC(C)Oc1ccc(-c2nc(-c3cccc4c3CC[C@@H]4NC(=N)N)no2)cc1C#N` [Compound 250], the EC50 is 0.05 to 0.5 nM.

For the compound `CC(C)Oc1ccc(-c2nc(-c3cccc4c3CC[C@H]4N[C@H](C)c3ccccc3)no2)cc1C#N` [Compound 251], the EC50 is more than 5 nM.

As to `CC(C)Oc1ccc(-c2nc(-c3cccc4c3CC[C@H]4N)no2)cc1S(C)(=O)=O` [Compound 252], the EC50 fell in the range of 0.5 to 5 nM.

Another assay concerns the target T1, S1P2 (Homo sapiens, UniProt O95136).
T1 construct: expressed in transfected cells; host or cells: CRE-bla CHOK1
Description: Specificity over other S1P receptors: S1P2 CRE-bla CHOK1 reporter assay. It is filed as cell-based. The note with it: S1P2 CRE-bla CHOK1, without Forskolin; read-out: S1P2 agonist value (EC50). The method, then: (§1) Cells were seeded into 384-well black wall/clear bottom plates at 10^4 cells/well/19.5 μl assay media (DMEM-phenol free, 0.5% charcoal/dextran stripped serum, 2 mM glutamine, 0.1 mM NEAA, 1 mM Na-Pyruvate, 25 mM Hepes) and incubated for 18 hrs at 37° C. in 5% CO2. Dose response curves (10-point) were generated in 10 mM Hepes, 0.1% Pluronic F127, in the presence of Forskolin. Cells were treated with 0.5 μl compound in the presence of 2 μM Forskolin for 4 hrs at 37° C. The FRET-based β-lactamase fluorescent substrate (LiveBLAzer™-FRET B/G Loading Kit CC4-AM; Invitrogen) was prepared according to manufacturer's directions, and incubated with cells for 2 hrs at room temperature. Plates were read at Ex:410/Em:458 and Ex:410/Em:522, and the response ratio determined. Data was analyzed by non-linear regression to determine the EC50 for inhibition of Forskolin induced cAMP.
(§2) To assess compound specificity on other S1P receptors the following cell lines were used: S1P2 CRE-bla CHOK1, S1P3-Gα15 NFAT-bla HEK293T (Invitrogen), S1P4-bla TANGO U2OS (Invitrogen), S1P5-bla TANGO U2OS (Invitrogen). The same assay set up for S1P1 was used but without Forskolin. S1P4 and S1P5 assays were performed in FreeStyle Expression medium (Invitrogen). S1P5 cells were incubated for 48 hrs in prior to treatment with compound.
For orientation: In a reporter assay the amount or activity of a reporter protein is the signal.
With `CCOc1ccc(-c2nc(-c3cccc4c3CCC4NCCO)no2)cc1OCC` (racemic) [Compound 253, (+/−)-2-((4-(5-(3,4,diethoxyphenyl)-1,2,4-oxadiazol-3-yl)-2,3-dihydro-1H-inden-1-yl)amino)ethanol, reference compound], the EC50 was more than 1000 nM.

The next assay addresses T2, S1P3 (Homo sapiens, UniProt Q99500).
T2 construct: host or cells: NFAT-bla HEK293T
Put plainly: Specificity over other S1P receptors: S1P3-Gα15 NFAT-bla HEK293T reporter assay. It is filed as cell-based. The note with it: without Forskolin, read-out: S1P3 agonist value (EC50). As to the method: as §1, §2
Turning to `CCOc1ccc(-c2nc(-c3cccc4c3CCC4NCCO)no2)cc1OCC` (racemic) [Compound 253, (+/−)-2-((4-(5-(3,4,diethoxyphenyl)-1,2,4-oxadiazol-3-yl)-2,3-dihydro-1H-inden-1-yl)amino)ethanol, reference compound], the EC50 amounted to 4300 nM.

The next assay deals with T3, S1P4 (Homo sapiens, UniProt O95977).
T3 construct: Tango fusion (own knowledge: protease cleavage site plus GAL4-VP16 transcription factor at the receptor's C-terminus); host or cells: U2OS (Tango -bla)
T3 sequence (O95977 1-384): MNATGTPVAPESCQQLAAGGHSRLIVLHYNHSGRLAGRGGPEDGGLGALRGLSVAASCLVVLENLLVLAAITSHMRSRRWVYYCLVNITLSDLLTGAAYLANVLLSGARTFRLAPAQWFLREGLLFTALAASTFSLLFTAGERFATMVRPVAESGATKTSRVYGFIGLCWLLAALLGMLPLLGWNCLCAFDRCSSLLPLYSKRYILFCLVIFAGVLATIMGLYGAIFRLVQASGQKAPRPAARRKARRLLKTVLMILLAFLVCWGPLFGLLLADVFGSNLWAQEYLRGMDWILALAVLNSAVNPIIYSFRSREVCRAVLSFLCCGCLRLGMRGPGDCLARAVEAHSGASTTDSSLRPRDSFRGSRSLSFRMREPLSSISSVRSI
Description: Specificity over other S1P receptors: S1P4-bla TANGO U2OS assay. It is filed as cell-based. The note with it: read-out: S1P4 agonist value (EC50). The method, then:
as §1, §2
For `CCOc1ccc(-c2nc(-c3cccc4c3CCC4NCCO)no2)cc1OCC` (racemic) [Compound 253, (+/−)-2-((4-(5-(3,4,diethoxyphenyl)-1,2,4-oxadiazol-3-yl)-2,3-dihydro-1H-inden-1-yl)amino)ethanol, reference compound], the EC50 came to 3250 nM.

For a further assay, the target named is T4, S1P5 (Homo sapiens, UniProt Q9H228).
T4 construct: Tango fusion (own knowledge: protease cleavage site plus GAL4-VP16 transcription factor at the receptor's C-terminus); host or cells: U2OS (Tango -bla)
T4 sequence (Q9H228 whole entry, the tested form may be a part): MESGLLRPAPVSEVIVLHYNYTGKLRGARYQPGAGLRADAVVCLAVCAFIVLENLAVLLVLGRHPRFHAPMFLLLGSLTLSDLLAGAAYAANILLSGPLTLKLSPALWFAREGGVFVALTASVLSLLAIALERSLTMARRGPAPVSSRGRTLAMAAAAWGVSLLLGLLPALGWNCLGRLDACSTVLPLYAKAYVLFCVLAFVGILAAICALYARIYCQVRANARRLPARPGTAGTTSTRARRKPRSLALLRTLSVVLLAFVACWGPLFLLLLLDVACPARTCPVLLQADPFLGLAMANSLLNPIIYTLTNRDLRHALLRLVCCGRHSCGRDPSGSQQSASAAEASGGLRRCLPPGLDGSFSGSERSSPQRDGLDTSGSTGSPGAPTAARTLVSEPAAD
Description: Specificity over other S1P receptors: S1P5-bla TANGO U2OS assay. It is filed as cell-based. The settings on record: read-out: S1P5 agonist value (EC50). As to the method:
as §1, §2
On to `CCOc1ccc(-c2nc(-c3cccc4c3CCC4NCCO)no2)cc1OCC` (racemic) [Compound 253, (+/−)-2-((4-(5-(3,4,diethoxyphenyl)-1,2,4-oxadiazol-3-yl)-2,3-dihydro-1H-inden-1-yl)amino)ethanol, reference compound], for which the EC50 is 136 nM.
